# Results as given in patent US20120270917A1 (The Trustees of the University of Pennsylvania, priority 2009, published 2012).
# Structures can show the parent of a compound that is named as a salt.
# Experiments:
# AM2 (S31N) = AM2 (S31N) (Influenza A virus, UniProt P0DOF5, S31N); assay type: cell-based
# AM2 (V27A) = AM2 (V27A) (Influenza A virus, UniProt P0DOF5, V27A); assay type: cell-based
Compound,AM2 (S31N) % inhibition at 100 uM (AM2 (S31N)),AM2 (V27A) % inhibition at μM (AM2 (V27A)) [%],AM2 (S31N) % inhibition at μM (AM2 (S31N)) [%],other results
"O=C1C2CC3CC1CC(C2)C3=O [Compound 52, 2,6-diadamantone]",52 (0%),–,–,–
CC(NC(=N)N)C12CC3CC(CC(C3)C1)C2 (centres unmarked) [Compound 40],40 (0%),–,–,–
O=C1C2CC3CC(C2)CC1C3 [Compound S13],–,0,0,–
"N=C(N)NC12CC3CC(CC(C3)C1)C2 [Compound 39, 1-(adamantyl)guanidine]",39 (0%),–,–,–
NC1(C(F)(F)F)C2CC3CC(C2)CC1C3 (centres unmarked) [Compound S6],–,1.5,13.7,–
CC1(N)C2CC3CC(C2)CC1C3 (centres unmarked) [Compound S5],–,7.2,13.8,–
"C1NC2CC3CC1CC(C3)C2.Cl [Compound 47, 4-Azatricyclo[4.3.1.1^3,8]undecan hydrochloride]",47 (8%),–,–,–
"Cl.NC1CCC2(CC1)C1CC3CC(C1)CC2C3 (centres unmarked) [Compound S15, (1r, 3r,5r,7r)-spiro[adamantane-2,1′-cyclohexan]-4′-aminium chloride]",–,–,–,V27A % of inhibition by 100 μM for 2 min (AM2 (V27A)): 94.5 ± 0.4%
"Cc1nc[nH]c1/C=N/OC12CC3CC(CC(C3)C1)C2 [Compound 43, 5-Methyl-3H-imidazole-4-carbaldehyde O-adamantan-1-yl-oxime]",43 (10%),–,–,–
"O=CC12CC3CC(CC(C3)C1)C2 [Compound 49, 1-adamantanecarboaldehyde]",49 (11%),–,–,–
"CC(N)C12CC3CC(CC(C3)C1)C2 (centres unmarked) [Rimantadine, reference compound]",–,–,–,S31N % of inhibition by 100 μM for 2 min (AM2 (S31N)): 13.3 ± 1.8%
"Cl.NC1C[C@@H]2C[C@@H]3CC1[C@H](C2)C3 (stereo partly drawn) [Compound S1, (2S,3aS,5R)-octahydro-1H-2,5-methanoinden-7-aminium chloride]",–,25.5,–,–
"Cl.NC12CC3CCC(CC(C3)C1)C2 [Compound S2, tricyclo[4.3.1.13,8]undecan-1-aminium chloride]",–,13.6,23.7,–
Cl.NC12CCC3CC(CC(C3)C1)C2 [Compound S12],–,13.3,32.8,–
NC1CSC2(SC1)C1CC3CC(C1)CC2C3 (centres unmarked) [Compound 45],45 (0%),–,–,–
"N=C(NO)C12CC3CC(CC(C3)C1)C2 [Compound 46, N-hydroxyadamantanecarboximidamide]",46 (0%),–,–,–

Compound,AM2 (S31N) % inhibition at 100 uM (AM2 (S31N)),AM2 (V27A) % inhibition at μM (AM2 (V27A)) [%],AM2 (S31N) % inhibition at μM (AM2 (S31N)) [%],other results
"O=[N+]([O-])C12CC3CC(CC(C3)C1)C2 [Compound 54, 1-nitroadamantane]",54 (24%),–,–,–
NS(=O)(=O)NC1C2CC3CC(C2)CC1C3 (centres unmarked) [Compound S7],–,–,3.8,–
NC(=O)C12CC3CC(CC(C3)C1)C2 [Compound 48],48 (7.3%),–,–,–
CC1(O)C2CC3CC(C2)CC1C3 (centres unmarked) [Compound S4],–,10.9,10.6,–
"N=C(N)C12CC3CC(CC(C3)C1)C2 [Compound 44, Adamantane amidine hydrochloride]",44 (31.5%),–,–,–
O=[N+]([O-])C1C2CC3CC(C2)CC1C3 (centres unmarked) [Compound S3],–,7.4,12.4,–
"NOC12CC3CC(CC(C3)C1)C2 [Compound 42, O-adamantylhydroxylamine]",42 (15%),–,–,–
OC1(C(F)(F)F)C2CC3CC(C2)CC1C3 (centres unmarked) [Compound S8],–,10.6,14.0,–
"NC12CC3CC(CC(C3)C1)C2 [Amantadine, reference compound]",–,–,–,S31N % of inhibition by 100 μM for 2 min (AM2 (S31N)): 34.7 ± 1.6%
NC12CC3CC(C1)CC(O)(C3)C2 [Compound 38],38 (20%),–,–,–
O=C1C2CC3CC(C2)CC1C3 [Compound 50],50 (0%),–,–,–
"OC1(C(F)(F)F)C2CC3CC(C2)CC1C3 (centres unmarked) [Compound 53, 2-trifluoromethyl-2-adamantol]",53 (14%),–,–,–
O=[N+]([O-])C12CC3CC(CC(C3)C1)C2 [Compound S9],–,19.9,24.0,–
Cl.NC1C2CC3CC(C2)CC1C3 (centres unmarked) [Compound S14],–,0,18.2,–
Cl.Cl.N=C(N)NC(=N)NC12CC3CC(CC(C3)C1)C2 [Compound 41],41 (0%),–,–,–
